In patent US12172995B2, “Substituted indole and indazole compounds” (BRISTOL-MYERS SQUIBB COMPANY, priority 2018, dated 2024) one finds IC50 data, which are given here for 12 compounds.

What all share (assay type): cell-based
Test [1] deals with T1, human TLR7 (Homo sapiens, UniProt Q9NYK1).
T1 construct: host or cells: HEK-Blue cells
T1 sequence (Q9NYK1 27-1049): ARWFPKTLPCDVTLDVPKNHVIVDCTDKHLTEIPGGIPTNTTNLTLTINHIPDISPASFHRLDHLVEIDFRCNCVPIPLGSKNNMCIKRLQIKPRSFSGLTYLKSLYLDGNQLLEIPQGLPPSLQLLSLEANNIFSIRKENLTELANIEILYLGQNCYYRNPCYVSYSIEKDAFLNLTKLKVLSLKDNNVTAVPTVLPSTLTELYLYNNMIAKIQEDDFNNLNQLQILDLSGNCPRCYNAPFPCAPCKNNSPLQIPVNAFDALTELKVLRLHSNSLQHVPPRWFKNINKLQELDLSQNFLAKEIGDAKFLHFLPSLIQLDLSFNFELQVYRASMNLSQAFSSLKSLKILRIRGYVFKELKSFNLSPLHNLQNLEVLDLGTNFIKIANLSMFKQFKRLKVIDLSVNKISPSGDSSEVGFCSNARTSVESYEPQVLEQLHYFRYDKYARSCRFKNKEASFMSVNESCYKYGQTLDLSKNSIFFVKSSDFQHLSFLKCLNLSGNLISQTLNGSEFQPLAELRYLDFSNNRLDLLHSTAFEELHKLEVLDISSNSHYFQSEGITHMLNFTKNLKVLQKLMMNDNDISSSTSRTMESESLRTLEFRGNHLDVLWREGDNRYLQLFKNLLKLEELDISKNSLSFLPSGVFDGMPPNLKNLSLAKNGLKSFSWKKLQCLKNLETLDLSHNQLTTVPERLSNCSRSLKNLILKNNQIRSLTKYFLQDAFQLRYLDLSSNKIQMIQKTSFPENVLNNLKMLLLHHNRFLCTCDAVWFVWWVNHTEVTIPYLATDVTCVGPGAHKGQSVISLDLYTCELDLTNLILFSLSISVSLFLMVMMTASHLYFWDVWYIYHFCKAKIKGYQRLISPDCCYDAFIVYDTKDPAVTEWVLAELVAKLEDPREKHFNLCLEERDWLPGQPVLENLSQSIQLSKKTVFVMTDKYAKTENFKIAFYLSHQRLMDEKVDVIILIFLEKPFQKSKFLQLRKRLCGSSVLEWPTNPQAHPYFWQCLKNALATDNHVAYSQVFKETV
Nature of the test: TLR7 inhibition reporter assay (HEK-Blue SEAP). Particulars: HEK-Blue cells overexpressing human TLR7, stimulated with gardiquimod 7.5 μM, 22 hour incubation. An outline of the steps:
(§1)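 HEK-Blue cells overexpressing the receptor, with an NF-κB/AP-1-driven SEAP reporter, were pre-treated with compound (0.05 nM to 50 μM) for 30 min at room temperature. Stimulation used gardiquimod 7.5 μM (TLR7), R848 15.9 μM (TLR8) or ODN2006 5 nM (TLR9), followed by 22 h at 37 °C.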

In test [2] the target is T2, human TLR8 (Homo sapiens, UniProt Q9NR97).
T2 construct: host or cells: HEK-Blue cells
T2 sequence (Q9NR97 27-1041): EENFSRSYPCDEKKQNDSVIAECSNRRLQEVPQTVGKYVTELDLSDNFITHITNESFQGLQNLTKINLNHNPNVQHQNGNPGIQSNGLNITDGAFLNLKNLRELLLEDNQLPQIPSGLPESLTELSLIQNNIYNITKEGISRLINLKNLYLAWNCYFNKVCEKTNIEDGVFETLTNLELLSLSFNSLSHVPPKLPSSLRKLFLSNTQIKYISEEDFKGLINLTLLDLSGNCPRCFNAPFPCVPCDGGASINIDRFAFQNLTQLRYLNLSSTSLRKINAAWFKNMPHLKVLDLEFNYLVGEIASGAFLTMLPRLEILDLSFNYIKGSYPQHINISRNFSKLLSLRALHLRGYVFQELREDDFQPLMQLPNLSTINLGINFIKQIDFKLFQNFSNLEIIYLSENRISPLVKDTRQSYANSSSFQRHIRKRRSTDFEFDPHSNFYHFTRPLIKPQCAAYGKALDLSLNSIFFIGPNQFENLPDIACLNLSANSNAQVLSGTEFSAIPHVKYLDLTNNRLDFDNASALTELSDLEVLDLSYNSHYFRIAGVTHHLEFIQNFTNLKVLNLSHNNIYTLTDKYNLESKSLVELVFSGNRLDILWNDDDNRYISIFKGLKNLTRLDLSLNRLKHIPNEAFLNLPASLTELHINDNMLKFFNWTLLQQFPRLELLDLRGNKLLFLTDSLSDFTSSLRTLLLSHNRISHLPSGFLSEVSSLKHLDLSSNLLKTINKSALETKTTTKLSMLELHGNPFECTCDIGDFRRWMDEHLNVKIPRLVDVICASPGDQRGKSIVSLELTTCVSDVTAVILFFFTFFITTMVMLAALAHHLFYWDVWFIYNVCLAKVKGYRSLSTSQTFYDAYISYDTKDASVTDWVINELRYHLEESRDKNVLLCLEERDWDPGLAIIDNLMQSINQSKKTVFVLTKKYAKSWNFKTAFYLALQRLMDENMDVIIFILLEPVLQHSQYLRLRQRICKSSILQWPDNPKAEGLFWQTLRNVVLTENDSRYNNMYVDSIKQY
Nature of the test: TLR8 inhibition reporter assay (HEK-Blue SEAP). Particulars: HEK-Blue cells overexpressing human TLR8, stimulated with R848 15.9 μM, 22 hour incubation. An outline of the steps: as §1

Test [3] has as its target T3, human TLR9 (Homo sapiens, UniProt Q9NR96).
T3 construct: host or cells: HEK-Blue cells
T3 sequence (Q9NR96 26-1032): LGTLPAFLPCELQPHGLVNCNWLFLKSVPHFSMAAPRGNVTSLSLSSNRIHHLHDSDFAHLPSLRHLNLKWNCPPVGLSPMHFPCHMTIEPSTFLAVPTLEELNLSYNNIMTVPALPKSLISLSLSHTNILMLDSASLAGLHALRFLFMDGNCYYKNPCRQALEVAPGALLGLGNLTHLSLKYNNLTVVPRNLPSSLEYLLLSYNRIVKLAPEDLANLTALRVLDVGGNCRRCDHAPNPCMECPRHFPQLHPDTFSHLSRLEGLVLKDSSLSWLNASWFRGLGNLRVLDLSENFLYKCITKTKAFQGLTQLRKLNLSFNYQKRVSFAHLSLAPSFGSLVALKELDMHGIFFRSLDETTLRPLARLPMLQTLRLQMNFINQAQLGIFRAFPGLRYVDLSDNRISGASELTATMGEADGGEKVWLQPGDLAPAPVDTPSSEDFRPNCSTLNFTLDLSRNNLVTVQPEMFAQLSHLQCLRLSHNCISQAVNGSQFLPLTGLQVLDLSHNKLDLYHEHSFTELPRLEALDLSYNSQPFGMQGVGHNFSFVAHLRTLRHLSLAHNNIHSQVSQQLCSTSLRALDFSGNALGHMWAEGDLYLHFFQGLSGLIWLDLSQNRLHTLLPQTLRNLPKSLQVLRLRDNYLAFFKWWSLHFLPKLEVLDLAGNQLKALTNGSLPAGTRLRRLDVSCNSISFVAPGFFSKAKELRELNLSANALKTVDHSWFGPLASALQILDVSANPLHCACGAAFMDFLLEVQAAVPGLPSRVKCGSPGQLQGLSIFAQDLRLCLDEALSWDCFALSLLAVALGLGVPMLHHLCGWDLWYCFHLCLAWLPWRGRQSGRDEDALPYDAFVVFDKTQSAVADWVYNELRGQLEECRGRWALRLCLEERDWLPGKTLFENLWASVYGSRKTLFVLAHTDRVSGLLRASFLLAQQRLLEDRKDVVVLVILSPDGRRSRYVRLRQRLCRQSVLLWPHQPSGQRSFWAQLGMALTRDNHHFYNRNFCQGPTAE
Nature of the test: TLR9 inhibition reporter assay (HEK-Blue SEAP). Particulars: HEK-Blue cells overexpressing human TLR9, stimulated with ODN2006 5 nM, 22 hour incubation. A digest of the protocol:
as §1

For `Cc1cc2c(C3CCCNC3)n[nH]c2cc1-c1cn(C)c2ncccc12` (stereo not drawn) [Example 47, 5-methyl-6-(1-methyl-1H-pyrrolo[2,3-b]pyridin-3-yl)-3-(piperidin-3-yl)-1H-indazole], the IC50 in test [1] amounted to 22.9 nM; in test [2], 0.2 nM; in test [3], 2.88 µM.
As for `Cc1cc(-c2ccc3c(C4CCNCC4)c[nH]c3c2)cn2ncnc12` [Example 12, 8-methyl-6-(3-(piperidin-4-yl)-1H-indol-6-yl)-[1,2,4]triazolo[1,5-a]pyridine], the IC50 in test [1] was determined as 16.9 nM; in test [2], 31.2 nM; in test [3] it was 0.192 µM.
For the compound `Cc1cc2c(C3CCN(CC#N)CC3)n[nH]c2cc1-c1cc(C)c2ncnn2c1` [Example 71, 2-(4-(5-methyl-6-(8-methyl-[1,2,4]triazolo[1,5-a]pyridin-6-yl)-1H-indazol-3-yl)piperidin-1-yl)acetonitrile], the values for the concentration for half-maximal inhibition (IC50) in test [1], in test [2] and in test [3] were 9.8 nM, 3.3 nM and 1.37 µM, respectively.
With `Cc1cc2c(C3CCCN(CC(=O)N(C)C)C3)n[nH]c2cc1-c1cc(C)c2ncnn2c1` (stereo not drawn) [Example 41, N,N-dimethyl-2-(3-(5-methyl-6-(8-methyl-[1,2,4]triazolo[1,5-a]pyridin-6-yl)-1H-indazol-3-yl)piperidin-1-yl) acetamide], the half-inhibitory concentration (IC50) in test [1] was determined as 20 nM; in test [2] it was 1.9 nM; in test [3] it was 7.3 µM.
Take `Cc1cc(-c2cc(C)c3ncnn3c2)cc2[nH]nc(C3CCCN(C)C3)c12` (stereo not drawn) [Example 61, 8-methyl-6-(4-methyl-3-(1-methylpiperidin-3-yl)-1H-indazol-6-yl)-[1,2,4]triazolo[1,5-a]pyridine]: the IC50 is 13.5 nM in test [1], 19.5 nM in test [2] and 3.34 µM in test [3].
Turning to `Cc1cc(-c2cc3[nH]nc(C4CCC(N5CC6(CCO6)C5)CC4)c3cc2C(C)C)cn2ncnc12` (stereo not drawn) [Example 155, 6-(4-(5-isopropyl-6-(8-methyl-[1,2,4]triazolo[1,5-a]pyridin-6-yl)-1H-indazol-3-yl)cyclohexyl)-1-oxa-6-azaspiro[3.3]heptane], the IC50 is 1.8 nM in test [1], 0.2 nM in test [2] and 7.56 µM in test [3].
On the same counts, the results for `Cc1cc2c(C3CCC(NCCS(C)(=O)=O)CC3)n[nH]c2cc1-c1cc(C)c2ncnn2c1` (stereo not drawn) [Example 30, 4-(5-methyl-6-(8-methyl-[1,2,4]triazolo[1,5-a]pyridin-6-yl)-1H-indazol-3-yl)-N-(2-(methylsulfonyl)ethyl) cyclohexan-1-amine] are 15.3 nM, 0.4 nM and 6.74 µM.
For `Cc1cc(-c2cc(C)c3ncnn3c2)cc2[nH]nc(OC3CCN(C(=O)CN(C)C)CC3)c12` [Example 175, 2-(dimethylamino)-1-(4-((4-methyl-6-(8-methyl-[1,2,4]triazolo[1,5-a]pyridin-6-yl)-1H-indazol-3-yl)oxy)piperidin-1-yl)ethan-1-one], the IC50 in test [1] came out at 5.1 nM; in test [2], 10.6 nM; in test [3] it was 1.63 µM.
On the same counts, the results for `Cc1cc(-c2cc3[nH]nc(C4CCC(N5CC(C)(O)C5)CC4)c3cc2C(C)C)cn2ncnc12` (stereo not drawn) [Example 153, 1-(4-(5-isopropyl-6-(8-methyl-[1,2,4]triazolo[1,5-a]pyridin-6-yl)-1H-indazol-3-yl)cyclohexyl)-3-methylazetidin-3-01] are 1.1 nM, 0.6 nM and 7.45 µM.
On to `Cc1cc(-c2cc(C)c3ncnn3c2)cc2[nH]nc(OC3CCC(NC4CC4)CC3)c12` (single isomer, unassigned) [Example 189, N-cyclopropyl-4-((4-methyl-6-(8-methyl-[1,2,4]triazolo[1,5-a]pyridin-6-yl)-1H-indazol-3-yl)oxy)cyclohexan-1-amine], for which the concentration for half-maximal inhibition (IC50) in test [1] was found to be 12.2 nM; in test [2], 8.2 nM; in test [3], 2.34 µM.
Take `Cc1cc(-c2cc3[nH]nc(C4CCC(NCC(=O)N(C)C)CC4)c3cc2C(C)C)cn2ncnc12` (single isomer, unassigned) [Example 125, 2-((4-(5-isopropyl-6-(8-methyl-[1,2,4]triazolo[1,5-a]pyridin-6-yl)-1H-indazol-3-yl)cyclohexyl)amino)-N,N-dimethylacetamide]: the IC50 in test [1] was determined as 2.5 nM; in test [2] it was 0.3 nM; in test [3], 12.1 µM.
On the same counts, the results for `Cc1cc(-c2cc(C)c3ncnn3c2)cc2[nH]nc(OC3CCC(NCCS(C)(=O)=O)CC3)c12` (stereo not drawn) [Example 187, 4-((4-methyl-6-(8-methyl-[1,2,4]triazolo[1,5-a]pyridin-6-yl)-1H-indazol-3-yl)oxy)-N-(2-(methylsulfonyl)ethyl)cyclohexan-1-amine] are 11.3 nM, 4.9 nM and 1.82 µM.
